# Measurements from PubChem BioAssay (NCI).
#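 These data come from cells grown in 96-well plates and exposed to compound for 48 hours at five concentrations. Abbreviation: GI50, concentration required for 50% inhibition of growth. The concentration for full growth arrest is given as TGI.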
# Legend:
# Experiment in all cases: NCI tumour cell line growth inhibition, 48 h
# [1] = test system: A498 renal
# [2] = test system: ACHN renal
# [3] = test system: HL-60(TB) leukemia
# [4] = test system: K-562 leukemia
# [5] = test system: NCI/ADR-RES ovarian
# [6] = test system: RXF 393 renal
# [7] = test system: SK-OV-3 ovarian
# [8] = test system: SNB-75 CNS
# [9] = test system: 786-0 renal
# [10] = test system: A549 NSCLC
# [11] = test system: BT-549 breast
# [12] = test system: CAKI-1 renal
# [13] = test system: COLO 205 colon
# [14] = test system: DU-145 prostate
# [15] = test system: EKVX NSCLC
# [16] = test system: HCC-2998 colon
# [17] = test system: HCT-116 colon
# [18] = test system: HCT-15 colon
# [19] = test system: HOP-62 NSCLC
# [20] = test system: HOP-92 NSCLC
# [21] = test system: HS 578T breast
# [22] = test system: HT29 colon
# [23] = test system: IGROV1 ovarian
# [24] = test system: KM12 colon
# [25] = test system: LOX IMVI melanoma
# [26] = test system: M14 melanoma
# [27] = test system: MALME-3M melanoma
# [28] = test system: MCF7 breast
# [29] = test system: MDA-MB-231 breast
# [30] = test system: MDA-MB-435
# [31] = test system: NCI-H226 lung
# [32] = test system: NCI-H23 lung
# [33] = test system: NCI-H460 lung
# [34] = test system: NCI-H522 lung
# [35] = test system: OVCAR-4 ovarian
# [36] = test system: OVCAR-5 ovarian
# [37] = test system: OVCAR-8 ovarian
# [38] = test system: PC-3 prostate
# [39] = test system: SF-268 CNS
# [40] = test system: SF-295 CNS
# [41] = test system: SF-539 CNS
# [42] = test system: SK-MEL-2 melanoma
# [43] = test system: SK-MEL-28 melanoma
# [44] = test system: SK-MEL-5 melanoma
# [45] = test system: SN12C renal
# [46] = test system: SNB-19 CNS
# [47] = test system: SR leukemia
# [48] = test system: SW-620 colon
# [49] = test system: T-47D breast
# [50] = test system: TK-10 renal
# [51] = test system: U251 CNS
# [52] = test system: UACC-257 melanoma
# [53] = test system: UACC-62 melanoma
# [54] = test system: UO-31 renal
structure (smiles),measurement,setting,value
NC(N)=Nc1ccc(Oc2cccc(Nc3ccc(Cl)c(C(F)(F)F)c3)c2)cn1,GI50,[1],1230 nM
same,TGI,[1],2670 nM
same,GI50,[2],1740 nM
same,TGI,[2],3210 nM
same,GI50,[3],1890 nM
same,TGI,[3],4520 nM
same,GI50,[4],1910 nM
same,TGI,[4],> 100000 nM
same,GI50,[5],3740 nM
same,TGI,[5],30500 nM
same,GI50,[6],1780 nM
same,TGI,[6],3580 nM
same,GI50,[7],1890 nM
same,TGI,[7],3430 nM
same,GI50,[8],1420 nM
same,TGI,[8],2770 nM
COc1cc2c(cc1OC)C(Sc1ccc(C)cc1)c1c(nc(N)c(C#N)c1N)O2 (centres undefined),GI50,[9],1420 nM
same,TGI,[9],2790 nM
same,GI50,[1],1380 nM
same,TGI,[1],2670 nM
same,GI50,[10],1730 nM
same,TGI,[10],3270 nM
same,GI50,[2],1510 nM
same,TGI,[2],2860 nM
same,GI50,[11],1220 nM
same,TGI,[11],2490 nM
same,GI50,[12],1050 nM
same,TGI,[12],2250 nM
same,GI50,[13],1490 nM
same,TGI,[13],2870 nM
same,GI50,[14],1680 nM
same,TGI,[14],3050 nM
same,GI50,[15],1690 nM
same,TGI,[15],3130 nM
same,GI50,[16],1580 nM
same,TGI,[16],3120 nM
same,GI50,[17],1510 nM
same,TGI,[17],3030 nM
same,GI50,[18],1000 nM
same,TGI,[18],2430 nM
same,GI50,[3],431 nM
same,TGI,[3],4050 nM
same,GI50,[19],1800 nM
same,TGI,[19],3240 nM
same,GI50,[20],1510 nM
same,TGI,[20],2930 nM
same,GI50,[21],1970 nM
same,TGI,[21],4870 nM
same,GI50,[22],1770 nM
same,TGI,[22],3430 nM
same,GI50,[23],715 nM
same,TGI,[23],2040 nM
same,GI50,[4],558 nM
same,TGI,[4],> 100000 nM
same,GI50,[24],1630 nM
same,TGI,[24],3010 nM
same,GI50,[25],1050 nM
same,TGI,[25],2420 nM
same,GI50,[26],1770 nM
same,TGI,[26],3290 nM
same,GI50,[27],1740 nM
same,TGI,[27],3240 nM
same,GI50,[28],742 nM
same,TGI,[28],2270 nM
same,GI50,[29],1650 nM
same,TGI,[29],3130 nM
same,GI50,[30],1580 nM
same,TGI,[30],3010 nM
same,GI50,[31],1900 nM
same,TGI,[31],3990 nM
same,GI50,[32],1590 nM
same,TGI,[32],3100 nM
same,GI50,[33],1760 nM
same,TGI,[33],3360 nM
same,GI50,[34],1620 nM
same,TGI,[34],3070 nM
same,GI50,[5],1670 nM
same,TGI,[5],3370 nM
same,GI50,[35],1660 nM
same,TGI,[35],3070 nM
same,GI50,[36],1810 nM
same,TGI,[36],3310 nM
same,GI50,[37],1550 nM
same,TGI,[37],2910 nM
same,GI50,[38],1510 nM
same,TGI,[38],2930 nM
same,GI50,[6],1150 nM
same,TGI,[6],2420 nM
same,GI50,[39],1560 nM
same,TGI,[39],3080 nM
same,GI50,[40],1600 nM
same,TGI,[40],3050 nM
same,GI50,[41],1570 nM
same,TGI,[41],2930 nM
same,GI50,[42],1590 nM
same,TGI,[42],2990 nM
same,GI50,[43],1670 nM
same,TGI,[43],3060 nM
same,GI50,[44],1780 nM
same,TGI,[44],3220 nM
same,GI50,[7],1910 nM
same,TGI,[7],3350 nM
same,GI50,[45],1490 nM
same,TGI,[45],2860 nM
same,GI50,[46],1460 nM
same,TGI,[46],2840 nM
same,GI50,[8],1220 nM
same,TGI,[8],2470 nM
same,GI50,[47],291 nM
same,TGI,[47],> 100000 nM
same,GI50,[48],1240 nM
same,TGI,[48],2740 nM
same,GI50,[49],1220 nM
same,TGI,[49],3560 nM
same,GI50,[50],1200 nM
same,TGI,[50],2470 nM
same,GI50,[51],1360 nM
same,TGI,[51],2750 nM
same,GI50,[52],1630 nM
same,TGI,[52],3070 nM
same,GI50,[53],1740 nM
same,TGI,[53],3220 nM
same,GI50,[54],1070 nM
same,TGI,[54],2250 nM
